What all share (assay): Cancer cell growth inhibition, SRB assay
A general note: The SRB assay estimates cell density from bound dye.

One test deals with H358. Format: cell-based, human. Also noted: Percentage of Growth Inhibition: unit not given here. As to conditions: SRB at Day 6; for GI50: Homo sapiens, NCI-H358, 144 h, H358 (Lung), triplicate. A digest of the protocol: (§1)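 GI50 denotes the compound concentration producing 50% growth inhibition, with inhibition expressed relative to DMSO-treated cells. Six-day compound exposure in DMEM supplemented with 3% FBS preceded SRB protein staining.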

The test system of another test is HCT-15. It is filed as cell-based, human. As to conditions: Homo sapiens, 144 h; HCT-15 (Colon); SRB at Day 6; triplicate.
The next test deals with A549. It is filed as cell-based, human. Also noted: Percentage of Growth Inhibition: scale not given here. As to conditions: SRB at Day 6; for GI50: Homo sapiens, 144 h, A549 (Lung), triplicate.
The test system of the next test is A172. It is filed as cell-based, human. As to conditions: Homo sapiens, A 172, 144 h; A172 (Brain); SRB at Day 6; triplicate. In outline: as §1
Another test deals with PC-3. It is filed as cell-based, human. As to conditions: SRB at Day 6; for GI50: Homo sapiens, 144 h, PC-3 (Prostate), triplicate. In outline: as §1
For another test, the system named is H460. It is filed as cell-based, human. As to conditions: SRB at Day 6; for GI50: Homo sapiens, NCI-H460, 144 h, H460 (Lung), triplicate. In outline: as §1
For another test, the system named is SW480. Format: cell-based, human. As to conditions: Homo sapiens, 144 h; SW480 (Colon); SRB at Day 6; triplicate.
Another test relates to Hs578T. It is filed as cell-based. As to conditions: Homo sapiens, Hs-578T, 144 h; Hs578T (Breast); SRB at Day 6; triplicate.
A further test relates to TOV-21G. It is filed as cell-based. As to conditions: Homo sapiens, TOV21G, 144 h; SRB at Day 6; triplicate.
For the next test, the system named is Caov-3. Format: cell-based. As to conditions: Homo sapiens, 144 h; Caov-3 (Ovarian); SRB at Day 6; triplicate.
A further test concerns MDA-231. It is filed as cell-based, human. As to conditions: SRB at Day 6; for GI50: Homo sapiens, MDA-MB-231, 144 h, MDA-231 (Breast), triplicate.
The test system of another test is HCT-8. Format: cell-based, human. As to conditions: at 10 μM, SRB at Day 6.

What is called GI50 is the concentration at which growth is held to half of that of the control. Take `CCCCCCCCc1ccc(NC(=O)NC2(CC(=O)O)CC[N+](C)(C)CC2)cc1` [Example S2, 4-(Carboxymethyl)-1,1-dimethyl-4-(3-(4-octylphenyl)ureido)piperidinium 2,2,2-trifluoroacetate]: the GI50 in the test with H358 was 3.1 µM; in the test on HCT-15, 3 µM; in the test on A549, 99 µM; in the test with A172 it was 1.8 µM; with PC-3 it was 8.2 µM; in the test with H460, 1.8 µM. Further, the figures for the GI50 in the test with SW480 and in the test on Hs578T were 0.7 µM and 50 µM, respectively.

As for `CCCCCc1ccc(S(=O)(=O)NC2(CC(=O)O)CC[N+](C)(C)CC2)cc1` [Example S4, 4-(Carboxymethyl)-1,1-dimethyl-4-(4-pentylphenylsulfonamido)piperidinium 2,2,2-trifluoroacetate], the GI50 in the test on HCT-15 is over 50 µM; in the test with TOV-21G, 44 µM; in the test with A172, over 50 µM; with PC-3 it was over 50 µM; in the test on SW480 it was over 50 µM.

Regarding `CCCCCCCCc1ccc(NS(=O)(=O)NC2(CC(=O)O)CCC[N+](C)(C)C2)cc1` (centres unmarked) [Example S16, 3-(carboxymethyl)-1,1-dimethyl-3-(N-(4-octylphenyl)sulfamoylamino)-piperidinium 2,2,2-trifluoroacetate], the GI50 in the test on Caov-3 came to 2.5 µM; in the test with H358 it was 1.4 µM; in the test with MDA-231, 0.5 µM; with HCT-15 it was 36 µM; in the test on A549 it was 6.2 µM; in the test with A172 it was 1.1 µM. For the same compound, the GI50 worked out at 2.1 µM with PC-3, 4 µM with SW480 and 17 µM in the test on Hs578T.

For the compound `CCCCCCCCc1ccc(NC(=O)NC2(CC(=O)O)CC[N+](C)(C)C2)cc1` (centres unmarked) [Example S18, 3-(carboxymethyl)-1,1-dimethyl-3-(3-(4-octylphenyl)ureido)-pyrrolidinium 2,2,2-trifluoroacetate], the GI50 was 2.7 µM in the test with H358; 5.4 µM in the test on HCT-15; 38 µM in the test on A549; 1.9 µM in the test on A172; 6.6 µM with PC-3; 2.2 µM in the test on H460. Moreover, the GI50 was found to be 1.2 µM in the test on SW480 and 26 µM in the test on Hs578T.

In the case of `CCCCCc1ccc(S(=O)(=O)NC2(CC(=O)O)CN(C)C2)cc1` [Example S27, 3-(carboxymethyl)-1-methyl-3-(4-pentylphenylsulfonamido)azetidinium 2,2,2-trifluoroacetate], the “Percentage of Growth Inhibition” value with H358 (H358, at 10 μM, NE = no activity at 10 micromolar) is given as 0.07312; in the test on MDA-231 (MDA-231, at 10 μM, NE = no activity at 10 micromolar), 0.1338%; in the test on A549 (A549, at 10 μM, NE = no activity at 10 micromolar), 0.06854%; with HCT-8 it was 0.09153%; in the test on PC-3 (PC-3, at 10 μM, NE = no activity at 10 micromolar), 0.0865%; with H460 (H460, at 10 μM, NE = no activity at 10 micromolar), 0.00556%.

As to `CCCCCc1ccc(S(=O)(=O)NC2(CC(=O)O)C[N+](C)(C)C2)cc1` [Example S29, 3-(carboxymethyl)-1,1-dimethyl-3-(4-pentylphenylsulfonamido)-azetidinium 2,2,2-trifluoroacetate], the GI50 in the test with H358 is 86 µM; in the test on MDA-231, over 50 µM; in the test on HCT-15 it was over 50 µM; with A549, over 50 µM; with A172, over 50 µM; with PC-3 it was over 50 µM. Besides, the GI50 with SW480 and with Hs578T was over 50 µM throughout.

The values are drawn from US8680282B2, “Cyclic inhibitors of carnitine palmitoyltransferase and treating cancer” (University Health Network, priority 2007, dated 2014).
